# Assay results as given in patent publication US20230066286A1, “DEUTERATED TRYPTAMINE DERIVATIVES AND METHODS OF USE” (priority 2020, published 2023).
# Key:
# 5-HT1A [1] = target: T1, 5-HT1A (Homo sapiens, UniProt P08908); assay: Receptor function assay, Gi stimulation (reduction in cAMP levels); format: cell-based
# T1 construct: expressed in transfected cells; host or cells: CHO-K1 or HEK293
# T1 sequence (P08908 1-422): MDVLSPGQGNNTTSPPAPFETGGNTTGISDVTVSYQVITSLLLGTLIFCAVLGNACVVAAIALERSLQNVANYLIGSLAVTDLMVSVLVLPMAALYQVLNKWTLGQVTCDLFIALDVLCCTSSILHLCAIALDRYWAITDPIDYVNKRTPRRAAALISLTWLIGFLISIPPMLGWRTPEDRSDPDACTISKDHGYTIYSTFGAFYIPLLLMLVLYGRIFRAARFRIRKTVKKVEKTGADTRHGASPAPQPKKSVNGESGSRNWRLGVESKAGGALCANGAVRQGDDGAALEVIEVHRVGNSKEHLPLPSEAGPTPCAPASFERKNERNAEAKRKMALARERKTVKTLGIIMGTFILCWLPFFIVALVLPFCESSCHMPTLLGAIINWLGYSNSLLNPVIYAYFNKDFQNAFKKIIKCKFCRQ
# Experimental: Receptor Function Assays: 5-HT1A receptor-mediated Gi stimulation (reduction in cyclic adenosine monophosphate (cAMP) levels) and 5-HT2(A,B,C) receptor-mediated Gq stimulation (phosphoinositide hydrolysis leading to the production of inositol phosphate 1 (IP1))-canonical signaling pathways—were measured as previously described (Canal et al., 2013), for example, with a homogeneous time-resolved fluorescence (HTRF) capable microplate reader (e.g., Mithras LB 940, Berthold) using commercially-available kits employing Fluorescence Resonance Energy Transfer (FRET) technology (e.g., LANCE Ultra cAMP TR-FRET (PerkinElmer) and IP-One HTRF (Cisbio) kits). Briefly, CHO-K1 or HEK293 cells expressing serotonergic receptors were incubated with test compounds in stimulation buffer. After equilibration, the reaction was terminated with the donor and acceptor fluorescent conjugates in lysis buffer, and FRET was measured. Data were fit to non-linear curves to calculate potencies (e.g., EC50) and efficacies (e.g., EMAX), relative to positive controls (e.g., serotonin).
# [2] = Blood-to-plasma ratio (BPR), parent drug in brain and plasma of rats; format: in vivo, rat; conditions: % change vs. non-deuterated material
# Experimental: (§1) The key PK parameters (presented as a % change vs. non-deuterated materials) are presented in Table 3 to include half-life (T½), area under the curve (AUC), bioavailability (F) and blood-to-plasma ration (BPR). Pharmacokinetics of the deuterated tryptamines was studied in rats. In a typical experiment, run as a cassette dosing, two groups of 5 Wistar female rats (200-250 g) with surgically inserted jugular vein catheter (Charles River, Andover, MA) were fasted for 12 h and then administered 5 mg/kg of the deuterated and 5 mg/kg of the related non-deuterated analog, by oral gavage or via a catheter for each group. At time points 0, 15, 30, 60 min, and 2, 4, 8, and 24 h, the resulting plasma was analyzed for the parent molecule using LC/MS spectroscopy. Two separate groups of 5 animals were used for determining blood-to-plasma ratio (BPR). Each group was sacrificed at time points 15 and 30 min, respectively, and the concentration of the parent drug was determined in the […] and plasma by LC/MS spectroscopy.
# [3] = PK study in rats, cassette dosing; format: in vivo, rat; conditions: % change vs. non-deuterated material, 5 mg/kg
# Experimental: as §1
# 5-HT1A [4] = target: T1, 5-HT1A; assay: Receptor affinity assay, radioligand competition binding
# Experimental: Receptor Affinity Assays: 5-HT1A, 5-HT2(A,B,C) receptor affinities were determined by radioligand competition binding. Membranes from CHO-K1 or HEK293 cells expressing serotonergic receptors were collected and incubated in assay buffer with Kd concentrations of radioligands and tests compounds that compete for receptor binding sites. After equilibration, the reaction was terminated by collecting ligand-receptor-membrane complexes (Microbeta, PerkinElmer), and radioactivity was measured by a scintillation counter (Microbeta2, PerkinElmer). Data were fit to non-linear curves, and Ki values were calculated per the Cheng-Prusoff equation.
smiles,measurement,setting,value
"[2H]C([2H])(Cc1c[nH]c2cccc(O)c12)N(C)C [PI-α,α-d2]",EC50,5-HT1A [1],200 nM
same,"BPR, 15 min, deuterium kinetic isotope effect (% change)",[2]; rats sacrificed at 15 min,100%
same,"BPR, 30 min, deuterium kinetic isotope effect (% change)",[2]; rats sacrificed at 30 min,150%
same,"AUC, deuterium kinetic isotope effect (% change)",[3]; oral gavage or via catheter,75%
same,"T½, deuterium kinetic isotope effect (% change)",[3]; oral gavage or via catheter,50%
same,bioavailability,"[3]; female, Wistar, rat, plasma, oral, read-out: F (bioavailability), deuterium kinetic isotope effect (% change)",45%
same,Ki,5-HT1A [4],510 nM
